The target in experiment [1] is T1, ATR/ATRIP (Homo sapiens, UniProt Q13535).
T1 construct: human ATR, full length, GenBank ID: NM_001184.3; p53: Sf21 insect cells
Put plainly: ATR/ATRIP kinase assay (TR-FRET, p53 phosphorylation). As to conditions: Table 1, class symbols; read-out: ATR-ATRIP IC50. In kind it is biochemical.

For experiment [2], the system named is phosphorylation of Chk1 (Ser 345) in HT29 colon adenocarcinoma cells. Put plainly: pCHK1 cellular assay. In kind it is cell-based. As to conditions: Homo sapiens. An excerpt: Chk1 kinase acts downstream of ATR and has a key role in DNA damage checkpoint control. Activation of Chk1 involves phosphorylation of Ser317 and Ser345 (regarded as the preferential target for phosphorylation/activation by ATR) and occurs in response to blocked DNA replication and certain forms of genotoxic stress. Phosphorylation at Ser 345 serves to localize Chk1 to the nucleus following checkpoint activation.
This assay measures a decrease in phosphorylation of Chk1 (Ser 345) in HT29 colon adenocarcinoma cells following treatment with compound and hydroxyurea (which promotes fork stalling because of dNTP depletion) and using an immunocytochemical procedure and high content imaging.
For the assay HT29 cells are plated in culture medium (DMEM high Glucose (no phenol red), 2 mM Glutamax, 1 mM Pyruvate, 10% FCS into Greiner 384 well plates, black, μclear #781090 (2500 cells/well/30 μl) and incubated for at least 20 hours at 37° C., 10% CO2 and 90% rH. Diluted test compounds (1 nM-30 μM final) and hydroxyurea (3 mM final) are added simultaneously and cells are incubated for 4 h at 37° C. After fixation/prmeabilisation with 100% MeOH (−20° C. cold) and permeabilisation with 0.2% Triton X-100 a complete immunocytochemical procedure is performed using a specific anti-pChk1 antibody (Cell Signaling, #2348BF) and fluorescently labelled secondary antibody (Alexa Fluor® 488 goat anti-rabbit F(ab′)2 fragment, Invitrogen A11070) and parallel nuclear staining for cell counting.
The nuclear localised pChk1 signal is detected on an ImageXpress Ultra confocal high content reader and reported as % positive cells (nuclei).

Experiment [3] concerns phosphorylation of H2AX (gH2AX) in U2OS-TopBP1-ER cells. Put plainly: gH2AX-TopBP1ER cellular assay. In kind it is cell-based. An excerpt:
gH2AX-TopBP1ER Cellular Assay
ATR activity is restricted to replicating cells and many of its targets can also be phosphorylated by other PIKKs. These restrictions have limited the development of selective cellular assays in the past. In order to overcome these limitations, a previously developed genetically engineered cellular system in which ATR, and only ATR, can be activated at will in every cell (Toledo et al Genes Dev. 22, 297-302 2008) was used. In this system, the addition of 4-hydroxytamoxifen (4-OHT), promotes the nuclear translocation of a fragment of TopBP1 which then activates ATR. The phosphorylation of H2AX that follows 4-OHT addition in these cells is a direct and selective readout of ATR activity, which is not influenced by the rest of PIKKs. This property has been used in a screen for compounds with ATR inhibitory capacity. U2OS-TopBP1-ER cells stably express the TopBP1 activation domain (aa 978-1286) fused to a mutated estrogen receptor ligand binding domain. Nuclear accumulation of the TopBP1-ER-LBD fusion protein is induced by the synthetic ER antagonist 4-hydroxytamoxifen (4-OHT) (and not by natural ER agonists) mediating specific ATR activation that is independent of DNA damage or cell cycle. In the assay phosphorylation of the ATR substrate H2AX (“gH2AX”) at Serin 139 is detected using an immune-cytochemical procedure and high content imaging. For the assay U2OS-TopBP1-ER cells are plated in culture medium (DMEM high Glucose (no phenol red), 2 mM Glutamax, 1 mM Pyruvate, 10% FCS into Greiner 384 well plates, black, μclear #781090 (4000 cells/well/30 μl) and incubated for at least 20 hours at 37° C., 10% CO2 and 90% rH. Diluted test compounds (1 nM-30 μM final) and 4-OHT (1 μM final) are added simultaneously and cells are incubated for 2 h at 37° C. After fixation with 4% formaldehyde and permeabilisation with 0.2% Triton X-100 a complete immunocytochemical procedure is performed using a specific anti-gH2AX-antibody (Millipore 05-636, clone JBW301) and fluorescently labelled secondary antibody (Alexa Fluor® 488 goat anti-mouse F(ab′)2 fragment, Invitrogen A11017) and parallel nuclear staining for cell counting. The nuclear localised gH2AX signal is detected on an ImageXpress Ultra confocal high content reader and reported as % positive cells (nuclei).

The mark [4] stands for this setting: HT-29, Table 1, class symbols, hydroxyurea.

By IC50 is commonly meant the midpoint of a concentration-inhibition curve.

SMILES strings stand for the structures.

T1 sequence (Q13535 whole entry): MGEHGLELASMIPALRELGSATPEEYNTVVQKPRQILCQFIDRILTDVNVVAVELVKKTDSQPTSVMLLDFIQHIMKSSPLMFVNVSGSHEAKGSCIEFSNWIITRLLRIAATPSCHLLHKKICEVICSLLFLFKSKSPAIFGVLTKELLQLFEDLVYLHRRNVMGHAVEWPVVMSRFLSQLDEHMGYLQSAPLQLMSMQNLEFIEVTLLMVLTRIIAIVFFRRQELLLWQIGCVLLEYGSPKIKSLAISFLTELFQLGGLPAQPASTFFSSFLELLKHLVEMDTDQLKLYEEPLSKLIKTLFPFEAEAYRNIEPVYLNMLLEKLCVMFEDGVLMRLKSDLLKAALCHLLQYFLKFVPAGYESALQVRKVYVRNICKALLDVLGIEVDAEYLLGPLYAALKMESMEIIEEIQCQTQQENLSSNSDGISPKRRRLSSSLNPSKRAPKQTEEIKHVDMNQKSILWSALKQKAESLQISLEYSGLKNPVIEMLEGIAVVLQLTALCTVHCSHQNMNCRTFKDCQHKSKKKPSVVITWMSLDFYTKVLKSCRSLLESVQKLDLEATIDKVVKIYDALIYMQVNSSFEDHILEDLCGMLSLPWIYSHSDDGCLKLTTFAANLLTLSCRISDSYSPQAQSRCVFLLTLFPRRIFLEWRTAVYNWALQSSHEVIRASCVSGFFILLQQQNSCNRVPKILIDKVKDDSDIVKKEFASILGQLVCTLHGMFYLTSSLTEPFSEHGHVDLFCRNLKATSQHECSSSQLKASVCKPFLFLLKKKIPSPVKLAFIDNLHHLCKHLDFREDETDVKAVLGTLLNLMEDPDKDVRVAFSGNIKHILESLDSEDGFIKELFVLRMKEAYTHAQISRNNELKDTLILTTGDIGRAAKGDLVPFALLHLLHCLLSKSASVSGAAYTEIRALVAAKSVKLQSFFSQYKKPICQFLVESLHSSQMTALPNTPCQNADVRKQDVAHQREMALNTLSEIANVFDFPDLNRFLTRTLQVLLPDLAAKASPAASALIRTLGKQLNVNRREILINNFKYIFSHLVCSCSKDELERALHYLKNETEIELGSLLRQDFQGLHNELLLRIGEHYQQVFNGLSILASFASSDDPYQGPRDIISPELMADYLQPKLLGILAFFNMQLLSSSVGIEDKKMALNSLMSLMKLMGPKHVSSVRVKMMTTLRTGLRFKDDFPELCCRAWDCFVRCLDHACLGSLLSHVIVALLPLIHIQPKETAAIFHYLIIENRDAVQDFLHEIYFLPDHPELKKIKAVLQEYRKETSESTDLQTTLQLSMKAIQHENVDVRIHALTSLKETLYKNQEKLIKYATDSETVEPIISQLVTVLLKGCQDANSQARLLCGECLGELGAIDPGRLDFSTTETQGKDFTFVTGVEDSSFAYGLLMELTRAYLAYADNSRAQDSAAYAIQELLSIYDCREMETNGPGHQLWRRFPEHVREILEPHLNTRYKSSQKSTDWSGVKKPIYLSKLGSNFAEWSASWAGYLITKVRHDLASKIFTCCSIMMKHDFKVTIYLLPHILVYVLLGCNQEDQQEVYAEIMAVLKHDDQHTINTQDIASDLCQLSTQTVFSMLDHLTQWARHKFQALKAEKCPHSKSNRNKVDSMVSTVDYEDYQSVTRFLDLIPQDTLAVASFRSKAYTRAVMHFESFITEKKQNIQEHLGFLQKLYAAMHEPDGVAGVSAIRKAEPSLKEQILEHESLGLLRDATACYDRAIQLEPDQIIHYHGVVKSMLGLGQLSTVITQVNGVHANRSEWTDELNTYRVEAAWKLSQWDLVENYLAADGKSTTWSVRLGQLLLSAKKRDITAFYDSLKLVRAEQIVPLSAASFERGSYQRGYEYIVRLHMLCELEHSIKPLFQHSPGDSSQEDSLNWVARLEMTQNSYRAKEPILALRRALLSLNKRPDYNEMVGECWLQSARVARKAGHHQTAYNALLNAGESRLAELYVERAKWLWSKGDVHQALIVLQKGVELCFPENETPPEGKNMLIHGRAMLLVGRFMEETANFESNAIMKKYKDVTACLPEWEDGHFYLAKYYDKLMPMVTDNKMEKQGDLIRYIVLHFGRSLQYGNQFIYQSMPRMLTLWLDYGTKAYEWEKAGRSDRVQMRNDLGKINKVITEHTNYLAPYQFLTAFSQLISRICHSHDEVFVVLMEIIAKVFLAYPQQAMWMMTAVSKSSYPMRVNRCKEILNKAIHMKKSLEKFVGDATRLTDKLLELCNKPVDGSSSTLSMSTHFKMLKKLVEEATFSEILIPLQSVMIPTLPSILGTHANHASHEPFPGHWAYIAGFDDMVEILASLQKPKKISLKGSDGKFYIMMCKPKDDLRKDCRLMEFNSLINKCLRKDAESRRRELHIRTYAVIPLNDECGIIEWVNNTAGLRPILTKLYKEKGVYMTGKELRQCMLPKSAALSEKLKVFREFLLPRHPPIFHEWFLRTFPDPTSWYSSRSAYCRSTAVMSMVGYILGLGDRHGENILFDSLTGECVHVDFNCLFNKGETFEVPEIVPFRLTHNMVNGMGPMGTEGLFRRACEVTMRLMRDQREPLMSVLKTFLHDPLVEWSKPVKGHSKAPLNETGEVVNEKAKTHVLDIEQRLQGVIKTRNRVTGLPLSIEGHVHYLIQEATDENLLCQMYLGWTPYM
T1 sequence (Q8WXE1 whole entry partner): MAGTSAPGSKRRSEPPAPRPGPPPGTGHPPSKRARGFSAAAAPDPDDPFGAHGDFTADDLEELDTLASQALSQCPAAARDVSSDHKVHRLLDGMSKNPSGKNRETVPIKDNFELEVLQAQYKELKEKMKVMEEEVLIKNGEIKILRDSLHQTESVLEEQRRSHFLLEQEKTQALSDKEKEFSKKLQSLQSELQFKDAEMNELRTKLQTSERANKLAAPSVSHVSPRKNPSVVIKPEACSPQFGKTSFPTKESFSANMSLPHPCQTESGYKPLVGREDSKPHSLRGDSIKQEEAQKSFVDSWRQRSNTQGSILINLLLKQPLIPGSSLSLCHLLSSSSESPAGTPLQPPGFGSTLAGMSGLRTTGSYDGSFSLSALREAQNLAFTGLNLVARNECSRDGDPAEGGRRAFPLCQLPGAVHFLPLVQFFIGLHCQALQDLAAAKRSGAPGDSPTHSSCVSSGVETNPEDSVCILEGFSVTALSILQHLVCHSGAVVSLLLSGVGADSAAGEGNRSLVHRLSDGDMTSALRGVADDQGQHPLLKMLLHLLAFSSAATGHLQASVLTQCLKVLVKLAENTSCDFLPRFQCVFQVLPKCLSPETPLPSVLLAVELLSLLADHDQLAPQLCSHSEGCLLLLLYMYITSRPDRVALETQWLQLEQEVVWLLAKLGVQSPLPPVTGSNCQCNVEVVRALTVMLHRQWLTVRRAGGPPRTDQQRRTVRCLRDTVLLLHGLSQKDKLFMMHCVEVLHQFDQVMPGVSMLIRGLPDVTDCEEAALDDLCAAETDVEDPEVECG

Turning to `CNc1nc2c(F)cccc2n1-c1nc2c(c(C(C)(C)S(C)(=O)=O)n1)OC[C@@H]1COC[C@@H](C)N21` [A25, {4-Fluoro-1-[(5R,8aS)-1-(1-methanesulfonyl-1-methyl-ethyl)-5-methyl-5,6,8a,9-tetrahydro-8H-7,10-dioxa-2,4,4b-triaza-phenanthren-3-yl]-1H-benzimidazol-2-yl}-methyl-amine], the IC50 is less than 1 nM in experiment [1]; 10 to 100 nM in experiment [2] (setting [4]); 100 to 1000 nM in experiment [3] (Table 1, class symbols, 4-OHT).

In the case of `C[C@@H]1COC[C@H]2COc3c(nc(-c4c(N)cnc5[nH]ccc45)nc3C(C)(C)O)N21` [A21, 2-[(5R,8aS)-3-(5-Amino-1H-pyrrolo[2,3-b]pyridin-4-yl)-5-methyl-5,6,8a,9-tetrahydro-8H-7,10-dioxa-2,4,4b-triaza-phenanthren-1-yl]-propan-2-ol], the IC50 in experiment [1] was less than 1 nM; in experiment [2] (setting [4]), 100 to 1000 nM; in experiment [3] (Table 1, class symbols, 4-OHT), 10 to 100 nM.

Regarding `CNc1nc2ccccc2n1-c1nc2c(c(C(C)(C)O)n1)OC[C@@H]1COC[C@@H](C)N21` [A9, 2-[(5R,8aS)-5-Methyl-3-(2-methylamino-benzimidazol-1-yl)-5,6,8a,9-tetrahydro-8H-7,10-dioxa-2,4,4b-triaza-phenanthren-1-yl]-propan-2-ol], the IC50 in experiment [1] is less than 1 nM; in experiment [2] (setting [4]), 10 to 100 nM; in experiment [3] (Table 1, class symbols, 4-OHT) it was 100 to 1000 nM.

Consider `CNc1cnc2[nH]ccc2c1-c1nc2c(c(C(C)(C)O)n1)OC[C@@H]1COC[C@@H](C)N21` [A23, 2-[(5R,8aS)-5-Methyl-3-(5-methylamino-1H-pyrrolo[2,3-b]pyridin-4-yl)-5,6,8a,9-tetrahydro-8H-7,10-dioxa-2,4,4b-triaza-phenanthren-1-yl]-propan-2-ol], for which the IC50 in experiment [1] was 1 to 10 nM; in experiment [2] (setting [4]) it was 10 to 100 nM; in experiment [3] (Table 1, class symbols, 4-OHT) it was 100 to 1000 nM.

As for `C[C@@H]1COC[C@H]2COc3c(nc(-n4c(N)nc5ccccc54)nc3C(C)(C)S(C)(=O)=O)N21` [A11, 1-[(5R,8aS)-1-(1-Methanesulfonyl-1-methyl-ethyl)-5-methyl-5,6,8a,9-tetrahydro-8H-7,10-dioxa-2,4,4b-triaza-phenanthren-3-yl]-1H-benzimidazol-2-ylamine], the IC50 in experiment [1] is less than 1 nM; in experiment [2] (setting [4]), 10 to 100 nM; in experiment [3] (Table 1, class symbols, 4-OHT), 100 to 1000 nM.

As for `C[C@@H]1COC[C@H]2COc3c(nc(-c4c(F)ncc5[nH]ccc45)nc3C(C)(C)S(C)(=O)=O)N21` [A29, (5R,8aS)-3-(5-Fluoro-1H-pyrrolo[2,3-c]pyridin-4-yl)-1-(1-methanesulfonyl-1-methyl-ethyl)-5-methyl-5,6,8a,9-tetrahydro-8H-7,10-dioxa-2,4,4b-triaza-phenanthrene], the results for the IC50 in experiment [1] and in experiment [2] (setting [4]) were less than 1 nM and 10 to 100 nM, respectively.

As for `CNc1nc2ccccc2n1-c1nc2c(c(C(C)(C)S(C)(=O)=O)n1)OC[C@@H]1COC[C@@H](C)N21` [A15, {1-[(5R,8aS)-1-(1-Methanesulfonyl-1-methyl-ethyl)-5-methyl-5,6,8a,9-tetrahydro-8H-7,10-dioxa-2,4,4b-triaza-phenanthren-3-yl]-1H-benzimidazol-2-yl}-methyl-amine], the IC50 in experiment [1] was less than 1 nM; in experiment [2] (setting [4]), less than 10 nM; in experiment [2] (HT-29, Table 2, hydroxyurea), 2.9 nM; in experiment [3] (Table 1, class symbols, 4-OHT) it was less than 10 nM; in experiment [3] (Table 2, 4-OHT), 7.4 nM.

For `C[C@@H]1COC[C@H]2COc3c(nc(-c4ccc(-c5ncc[nH]5)cc4)nc3C(C)(C)S(C)(=O)=O)N21` [A44, (10S,14R)-4-[4-(1H-imidazol-2-yl)phenyl]-6-(2-methanesulfonylpropan-2-yl)-14-methyl-8,12-dioxa-1,3,5-triazatricyclo[8.4.0.0^2,7]tetradeca-2,4,6-triene], the concentration for half-maximal inhibition (IC50) is less than 1 nM in experiment [1] and 100 to 1000 nM in experiment [2] (setting [4]).

Turning to `C[C@@H]1COC[C@H]2COc3c(nc(-c4c(O)cnc5[nH]ccc45)nc3C3(S(C)(=O)=O)CC3)N21` [A91, 4-[(5R,8aS)-1-(1-methanesulfonyl-cyclopropyl)-5-methyl-5,6,8a,9-tetrahydro-8H-7,10-dioxa-2,4,4b-triaza-phenanthren-3-yl]-1H-pyrrolo[2,3-b]pyridin-5-ol], the IC50 in experiment [1] is less than 1 nM; in experiment [2] (setting [4]), 100 to 1000 nM.

For the compound `CNc1nccn1-c1nc2c(c(C(C)(C)S(C)(=O)=O)n1)OC[C@@H]1COC[C@@H](C)N21` [A10, {1-[(5R,8aS)-1-(1-Methanesulfonyl-1-methyl-ethyl)-5-methyl-5,6,8a,9-tetrahydro-8H-7,10-dioxa-2,4,4b-triaza-phenanthren-3-yl]-1H-imidazol-2-yl}-methyl-amine], the IC50 in experiment [1] was in the range of 10 to 100 nM; in experiment [2] (setting [4]) it was 10 to 100 nM; in experiment [3] (Table 1, class symbols, 4-OHT), 100 to 1000 nM.

For `CC(C)Nc1cnc2[nH]ccc2c1-c1nc2c(c(C(C)(C)S(C)(=O)=O)n1)OC[C@@H]1COC[C@@H](C)N21` [A81, isopropyl-{4-[(S)-1-(1-methanesulfonyl-1-methyl-ethyl)-5-(R)methyl-5,6,8a,9-tetrahydro-8H-7,10-dioxa-2,4,4b-triaza-phenanthren-3-yl]-1H-pyrrolo[2,3-b]pyridin-5-yl}-amine], the IC50 was in the range of 1 to 10 nM in experiment [1] and 100 to 1000 nM in experiment [2] (setting [4]).

Turning to `CNc1nc2ccccc2n1-c1nc2c(c(C3(S(C)(=O)=O)CC3)n1)OC[C@@H]1COC[C@@H](C)N21` [A26, {1-[(4bR,8S)-1-(1-Methanesulfonyl-cyclopropyl)-5-methyl-5,6,8a,9-tetrahydro-8H-7,10-dioxa-2,4,4b-triaza-phenanthren-3-yl]-1H-benzimidazol-2-yl}-methylamine], the IC50 was less than 1 nM in experiment [1]; 10 to 100 nM in experiment [2] (setting [4]); 25 nM in experiment [2] (HT-29, Table 2, hydroxyurea); 10 to 100 nM in experiment [3] (Table 1, class symbols, 4-OHT); 37 nM in experiment [3] (Table 2, 4-OHT).

Regarding `Cc1nc2ccccc2n1-c1nc2c(c(C(C)(C)S(C)(=O)=O)n1)OC[C@@H]1COC[C@@H](C)N21` [A24, (5R,8aS)-1-(1-Methanesulfonyl-1-methyl-ethyl)-5-methyl-3-(2-methylbenzimidazol-1-yl)-5,6,8a,9-tetrahydro-8H-7,10-dioxa-2,4,4b-triaza-phenanthrene], the IC50 is less than 1 nM in experiment [1]; 10 to 100 nM in experiment [2] (setting [4]); 100 to 1000 nM in experiment [3] (Table 1, class symbols, 4-OHT).

As for `C[C@@H]1COC[C@H]2COc3c(nc(-c4c(F)cnc5[nH]ccc45)nc3C(C)(C)O)N21` [A7, 2-[(5R,8aS)-3-(5-Fluoro-1H-pyrrolo[2,3-b]pyridin-4-yl)-5-methyl-5,6,8a,9-tetrahydro-8H-7,10-dioxa-2,4,4b-triaza-phenanthren-1-yl]-propan-2-ol], the IC50 in experiment [1] was 1 to 10 nM; in experiment [2] (setting [4]), 100 to 1000 nM; in experiment [3] (Table 1, class symbols, 4-OHT), 100 to 1000 nM.

As to `C[C@@H]1COC[C@H]2COc3c(nc(-c4ccnc5[nH]ccc45)nc3C(C)(C)O)N21` [A6, 2-[(5R,8aS)-5-Methyl-3-(1H-pyrrolo[2,3-b]pyridin-4-yl)-5,6,8a,9-tetrahydro-8H-7,10-dioxa-2,4,4b-triaza-phenanthren-1-yl]-propan-2-ol], the IC50 in experiment [1] was less than 1 nM; in experiment [2] (setting [4]), 10 to 100 nM; in experiment [3] (Table 1, class symbols, 4-OHT), 10 to 100 nM.

Values taken from patent US10570149B2, “Tricyclic heterocylic derivatives” (MERCK PATENT GMBH, priority 2016, dated 2020).
